In US6624141B1, “Protamine fragment compositions and methods of use” (The Regents of The University of Michigan, priority 1999, dated 2003):
Like-named read-outs stand apart in the source and are kept apart here.

Key:
[1] = system: anti-Xa activity of CY216 (LMWH); assay: Neutralization of LMWH (CY216) by anti-Xa chromogenic substrate assay; type: biochemical; details: dose of 30 μg
Description: (§1) Heparin neutralization by protamine and LMWP was also measured in plasma by anti-factor Xa chromogenic assay and activated partial thromboplastin time (aPTT) clotting assay (Yang et al., 1986). In brief, for the anti-factor Xa assay, a series of plasma samples containing 0.4 mg of heparin, 15 IU of ATIII, and various amounts of protamine (0-0.8 mg) or LMWP (0-0.4 mg) were prepared. One hundred microliters of the plasma sample were then mixed with 800 μl of Tris-HCl buffer (pH 7.4), followed by the addition of 100 μl of Factor Xa (7.1 nkat/ml). After a 3 min incubation at 37° C., 200 μl of […] substrate (0.5 mg/ml) were added. The reaction mixture was incubated for 5 min at 37° C. and then quenched by the addition of 200 μl of 20% acetic acid. The absorbance in the solution was measured at 405 nm, and the degree of heparin neutralization is proportional to this measured absorbance.
Neutralization of the anticoagulant functions of both heparin and LMWH by protamine and LMWP is studied in human plasma using the aPTT clotting assay and the chromagenic anti-Xa and anti-IIa assays (Yang et al., 1986). The aPTT values of the test samples, are measured using a fibrometer (Fibrosystem; Becton-Dickinson, Cockeysville, Md.), and the anti-Xa and anti-IIa activities are measured using the chromagenic substrates S-2222 and S-2238, respectively. […]

[2] = Binding constant to LMWH determined with the heparin sensor
Excerpt: (§2) With the assistance of the heparin sensor and the methodology described previously (Yun et al., 1993), the inventors were able to determine the binding constant of heparin and LMWH to ATIII, protamine, and LMWP.

[3] = cited from earlier work
[4] = Immunogenicity in mice, IgG antibody production by ELISA; type: in vivo; details: immunized with 50 μg in CFA plus boosters; ELISA on wells coated with the same species
Description: The immunogenicity of protamine and LMWP was examined in mice. The production of polyclonal antibodies was performed as described (Cooper and Paterson, 1991). Fifteen thin-skinned albino mice, ten for protamine and five for LMWP were included. Each mouse was immunized with 50 μg of either protamine or LMWP in the complete Freund's adjuvant (CFA). Four weeks later, animals were bled and first booster was given with 5 μg of protamine (or LMWP) in incomplete Freund's adjuvant (IFA). Second and third boosters were given at two-week intervals. Afterwards, blood was collected, allowed to clot, and centrifuged to collect serum. All sera were tested for IgG antibodies using a modified ELISA method (Singh et al., 1982). Protamine or LMWP was used to coat the wells of the microplate in order to capture their related antibodies. The detection antibody was goat-antimouse-IgG-alkaline phosphatase that was reacted with p-nitrophenylphosphate to produce the absorbance readings at 405 nm. The antigenicity of LMWP was examined by following the same ELISA method described above but by utilizing a LMWP-coated microplate for antibody detection in the protamine-immunized mice.

[5] = system: anti-Xa activity of heparin; assay: Heparin neutralization by anti-factor Xa chromogenic assay; type: biochemical, human; details: heparin 40 μg; half-points of ΔAbs in FIG. 5
Description: as §1

[6] = system: aPTT activity of heparin; assay: Heparin neutralization by aPTT clotting assay; type: biochemical, human; details: heparin 1 mg
Description: For the aPTT clotting assay, 15 μl of heparin solution (20 μg/ml) was mixed with 15 μl of solution containing various concentrations of protamine (0-60 μg/ml) or LMWP species (0-100 μg/ml). To the mixture, 100 μl of actin cephaloplastin and 100 μl of plasma were added. After 3 min of incubation, 100 μl of 0.02 M calcium chloride (preheated to 37° C.) was added and the clotting time was immediately measured using a fibrometer (Fibrosystem, Becton Dickinson Company, Cockeysville, Md.).

[7] = cited from earlier work; remark: listed apart in the source
[8] = Binding constant to heparin determined with the heparin sensor
Excerpt: as §2

[9] = Blood glucose control in streptozotocin-diabetic rats; type: in vivo; details: data from 6 rats
Description: Induction of diabetes in rats was carried out by the injection of streptozotocin at a dose of 45 mg/kg body weight. Diabetes was confirmed 24 h after injection by measuring the tail blood glucose with a Lifescan Glucometer (One Touch II).

| Binding Constant to LMWH [2] [µM⁻¹] | Binding Constant to LMWH ([2]; listed as protamine) [µM⁻¹] | Binding Constant to Heparin [8] [µM⁻¹] | Binding Constant to Heparin ([8]; listed as protamine) [µM⁻¹] | Substance | neutralization of the anti-Xa activity of CY216 [1] [%] | pKa [3] | mice with positive reaction for antibodies [4] | dose required for 50% heparin neutralization [5] [nmol] | amount required to completely neutralize the aPTT activity of heparin [6] [mg] | units of heparin neutralized by each milligram ([7]; heparin derived from bovine lung tissue) | units of heparin neutralized by each milligram ([7]; heparin derived from porcine intestinal mucosa) [units] | overall time span to preserve a low glucose level [9] [min] | time required to reach the minimum glucose level [9] [min] |
| --- | --- | --- | --- | --- | --- | --- | --- | --- | --- | --- | --- | --- | --- |
| 1.1 ± 0.3 | 1.1 | 89.0 ± 2.0 | 89 | Protamine | 60 | about 10 | 4 out of 10 and four out of ten | 7 | ~1.7 | approximately 90 units | ~115 | – | – |
| – | – | – | – | insulin | – | – | – | – | – | – | – | 360 ± 50 | 100 ± 20 |
